IC50 data for 1 molecule are collected here from paper PMC5342759, “An inhibitor of cholesterol absorption displays anti-myeloma activity by targeting the JAK2-STAT3 signaling pathway” (Oncotarget, 2016).

Among the targets are TYK2 (Homo sapiens, UniProt P29597); JAK2 (Homo sapiens, UniProt O60674); JAK1 (Homo sapiens, UniProt P23458).
Common to all, as to assay: HotSpot radiometric kinase assay, purified recombinant human kinase, 10-dose IC50
Holding throughout (assay type): biochemical

A further assay concerns the target T1, JAK3 (Homo sapiens, UniProt P52333).
T1 sequence (P52333 1-1124): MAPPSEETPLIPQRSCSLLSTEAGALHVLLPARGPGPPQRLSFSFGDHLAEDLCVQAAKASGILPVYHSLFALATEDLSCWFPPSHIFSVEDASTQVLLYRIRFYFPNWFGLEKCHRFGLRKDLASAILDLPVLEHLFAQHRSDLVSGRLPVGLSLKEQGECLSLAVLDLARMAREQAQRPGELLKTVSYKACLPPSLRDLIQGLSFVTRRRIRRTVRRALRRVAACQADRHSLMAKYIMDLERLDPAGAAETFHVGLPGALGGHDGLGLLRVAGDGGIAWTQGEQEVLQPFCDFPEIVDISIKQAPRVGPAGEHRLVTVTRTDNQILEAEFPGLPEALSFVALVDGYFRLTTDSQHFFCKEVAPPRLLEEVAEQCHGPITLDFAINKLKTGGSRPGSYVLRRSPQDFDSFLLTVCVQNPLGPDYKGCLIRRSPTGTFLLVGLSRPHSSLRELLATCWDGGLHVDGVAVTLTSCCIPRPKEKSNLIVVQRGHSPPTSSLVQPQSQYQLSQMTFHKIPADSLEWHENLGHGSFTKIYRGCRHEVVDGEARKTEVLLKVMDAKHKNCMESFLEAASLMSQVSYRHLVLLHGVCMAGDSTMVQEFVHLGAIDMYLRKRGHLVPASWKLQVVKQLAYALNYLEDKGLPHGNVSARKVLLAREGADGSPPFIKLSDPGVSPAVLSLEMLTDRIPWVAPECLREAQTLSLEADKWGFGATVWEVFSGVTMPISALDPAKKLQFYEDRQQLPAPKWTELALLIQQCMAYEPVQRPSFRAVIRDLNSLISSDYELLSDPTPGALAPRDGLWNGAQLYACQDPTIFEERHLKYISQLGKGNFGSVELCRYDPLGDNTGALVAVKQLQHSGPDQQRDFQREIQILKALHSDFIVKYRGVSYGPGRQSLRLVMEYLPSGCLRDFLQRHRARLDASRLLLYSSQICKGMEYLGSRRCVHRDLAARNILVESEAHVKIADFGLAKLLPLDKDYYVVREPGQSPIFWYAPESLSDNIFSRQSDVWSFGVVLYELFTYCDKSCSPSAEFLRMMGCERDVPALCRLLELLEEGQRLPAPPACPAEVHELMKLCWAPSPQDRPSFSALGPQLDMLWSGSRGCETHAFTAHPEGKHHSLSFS

TYK2, sequence (P29597 whole entry): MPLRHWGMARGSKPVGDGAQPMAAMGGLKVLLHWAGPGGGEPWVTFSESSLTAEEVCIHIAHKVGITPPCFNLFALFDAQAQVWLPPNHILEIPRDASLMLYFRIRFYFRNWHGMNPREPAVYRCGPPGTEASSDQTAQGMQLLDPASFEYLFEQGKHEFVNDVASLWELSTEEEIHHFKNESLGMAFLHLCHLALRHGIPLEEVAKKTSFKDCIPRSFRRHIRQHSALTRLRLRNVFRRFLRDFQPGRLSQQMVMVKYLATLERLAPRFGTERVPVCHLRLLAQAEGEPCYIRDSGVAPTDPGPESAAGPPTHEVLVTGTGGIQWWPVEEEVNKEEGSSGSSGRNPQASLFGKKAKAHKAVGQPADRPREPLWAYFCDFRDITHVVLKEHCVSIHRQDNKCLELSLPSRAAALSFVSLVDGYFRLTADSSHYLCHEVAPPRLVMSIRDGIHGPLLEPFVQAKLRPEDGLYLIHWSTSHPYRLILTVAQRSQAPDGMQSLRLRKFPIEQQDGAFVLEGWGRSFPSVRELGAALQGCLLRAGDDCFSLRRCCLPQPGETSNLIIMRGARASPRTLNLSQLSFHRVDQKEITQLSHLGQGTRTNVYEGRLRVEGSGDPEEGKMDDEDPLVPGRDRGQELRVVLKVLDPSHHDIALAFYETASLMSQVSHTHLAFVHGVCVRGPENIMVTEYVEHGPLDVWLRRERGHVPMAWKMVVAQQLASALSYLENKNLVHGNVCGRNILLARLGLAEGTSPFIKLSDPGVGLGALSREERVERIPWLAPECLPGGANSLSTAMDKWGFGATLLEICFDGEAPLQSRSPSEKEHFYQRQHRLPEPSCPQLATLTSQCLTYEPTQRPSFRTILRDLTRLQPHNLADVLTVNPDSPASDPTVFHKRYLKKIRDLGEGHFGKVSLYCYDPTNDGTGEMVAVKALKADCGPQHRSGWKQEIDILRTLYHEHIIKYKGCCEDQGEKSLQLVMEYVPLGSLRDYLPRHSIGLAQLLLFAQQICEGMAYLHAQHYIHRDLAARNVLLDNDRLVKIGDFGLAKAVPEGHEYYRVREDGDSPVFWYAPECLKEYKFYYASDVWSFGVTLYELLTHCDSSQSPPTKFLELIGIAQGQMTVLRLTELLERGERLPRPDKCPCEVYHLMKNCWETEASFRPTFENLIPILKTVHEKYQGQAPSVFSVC
JAK2, sequence (O60674 whole entry): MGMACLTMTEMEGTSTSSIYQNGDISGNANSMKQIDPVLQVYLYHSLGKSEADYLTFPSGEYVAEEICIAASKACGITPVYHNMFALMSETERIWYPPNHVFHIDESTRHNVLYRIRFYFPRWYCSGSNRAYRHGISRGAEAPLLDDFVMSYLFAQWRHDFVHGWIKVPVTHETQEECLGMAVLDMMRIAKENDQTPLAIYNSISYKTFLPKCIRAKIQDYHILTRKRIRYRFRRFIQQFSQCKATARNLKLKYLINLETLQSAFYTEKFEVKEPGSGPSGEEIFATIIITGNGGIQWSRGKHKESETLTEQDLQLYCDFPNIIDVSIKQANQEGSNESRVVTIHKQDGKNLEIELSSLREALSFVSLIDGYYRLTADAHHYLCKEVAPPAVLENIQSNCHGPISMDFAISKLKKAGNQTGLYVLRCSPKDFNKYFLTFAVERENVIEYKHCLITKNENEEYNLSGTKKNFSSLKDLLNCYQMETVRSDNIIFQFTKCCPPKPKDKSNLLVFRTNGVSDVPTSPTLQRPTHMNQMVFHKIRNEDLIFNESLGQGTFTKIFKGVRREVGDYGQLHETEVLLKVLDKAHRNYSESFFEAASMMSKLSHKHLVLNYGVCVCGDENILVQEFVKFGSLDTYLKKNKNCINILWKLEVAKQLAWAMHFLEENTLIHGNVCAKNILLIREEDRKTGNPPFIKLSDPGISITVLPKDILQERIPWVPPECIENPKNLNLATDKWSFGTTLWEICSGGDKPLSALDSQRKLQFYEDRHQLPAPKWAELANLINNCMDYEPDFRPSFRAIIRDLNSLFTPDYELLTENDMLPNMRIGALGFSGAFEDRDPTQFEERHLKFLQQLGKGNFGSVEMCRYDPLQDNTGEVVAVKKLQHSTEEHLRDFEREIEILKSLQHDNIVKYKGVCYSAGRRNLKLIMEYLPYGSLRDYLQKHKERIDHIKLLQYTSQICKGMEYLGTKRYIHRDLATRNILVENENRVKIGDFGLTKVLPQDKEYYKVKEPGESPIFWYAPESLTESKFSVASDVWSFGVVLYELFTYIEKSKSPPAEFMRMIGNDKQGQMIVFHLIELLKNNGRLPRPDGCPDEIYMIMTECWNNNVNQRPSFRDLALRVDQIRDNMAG
JAK1, sequence (P23458 whole entry): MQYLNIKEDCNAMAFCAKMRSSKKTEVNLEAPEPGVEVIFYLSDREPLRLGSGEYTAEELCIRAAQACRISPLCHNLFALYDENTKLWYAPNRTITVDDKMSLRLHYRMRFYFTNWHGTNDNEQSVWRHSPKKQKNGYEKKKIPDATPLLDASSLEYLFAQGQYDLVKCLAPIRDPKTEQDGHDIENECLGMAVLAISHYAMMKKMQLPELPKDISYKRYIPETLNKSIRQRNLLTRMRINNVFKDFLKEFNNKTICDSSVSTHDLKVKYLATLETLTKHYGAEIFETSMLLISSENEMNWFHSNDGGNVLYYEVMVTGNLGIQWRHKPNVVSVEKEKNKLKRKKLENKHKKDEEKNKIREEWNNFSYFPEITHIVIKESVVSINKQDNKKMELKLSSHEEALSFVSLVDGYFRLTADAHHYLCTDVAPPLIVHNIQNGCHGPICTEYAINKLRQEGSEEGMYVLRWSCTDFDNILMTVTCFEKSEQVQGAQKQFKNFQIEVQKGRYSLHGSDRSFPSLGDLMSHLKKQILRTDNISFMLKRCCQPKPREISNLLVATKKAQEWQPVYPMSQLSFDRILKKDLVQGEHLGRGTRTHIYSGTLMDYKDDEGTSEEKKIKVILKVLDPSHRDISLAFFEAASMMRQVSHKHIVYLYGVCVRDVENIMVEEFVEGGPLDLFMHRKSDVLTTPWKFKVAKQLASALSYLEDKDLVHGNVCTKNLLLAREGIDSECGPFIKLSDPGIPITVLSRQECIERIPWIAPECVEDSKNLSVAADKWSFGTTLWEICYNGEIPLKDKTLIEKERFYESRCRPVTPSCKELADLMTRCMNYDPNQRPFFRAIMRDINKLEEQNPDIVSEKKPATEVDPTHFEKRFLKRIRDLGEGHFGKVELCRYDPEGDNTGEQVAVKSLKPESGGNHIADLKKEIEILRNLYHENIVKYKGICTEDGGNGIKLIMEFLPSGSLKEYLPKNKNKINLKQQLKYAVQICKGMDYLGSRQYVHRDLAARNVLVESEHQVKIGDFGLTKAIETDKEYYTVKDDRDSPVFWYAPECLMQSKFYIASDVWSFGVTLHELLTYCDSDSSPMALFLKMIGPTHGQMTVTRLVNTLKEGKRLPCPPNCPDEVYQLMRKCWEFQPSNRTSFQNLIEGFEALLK

The term IC50 denotes the concentration that inhibits the measured activity by half. In the case of `N#C/C(=N\Nc1ccc(C(F)(F)F)cc1)S(=O)(=O)c1cccs1` [SC09], the IC50 at JAK3 stood at 139 µM; at TYK2, 111 µM; on JAK2, 8.88 µM; at JAK1, 153 µM.
